# Reference: the NIST ThermoML archive (doi:10.1021/je049777o)
# Numbers after ± are expanded uncertainties.
# Experiment: xn = mol fraction of the nth substance listed
# Details: 101.3 kPa, Liquid
smiles,measurement,setting,value
Clc1ccccc1 [chlorobenzene] + COC(=O)OC,mass density,"293.15 K, x2 = 0",1106.74 ± 0.4 kg/m3
same,viscosity,"293.15 K, x2 = 0",0.8084 ± 0.021 mPa·s
same,mass density,"293.15 K, x2 = 0.1225",1102.19 ± 0.38 kg/m3
same,viscosity,"293.15 K, x2 = 0.1225",0.7794 ± 0.02 mPa·s
same,mass density,"293.15 K, x2 = 0.238",1097.84 ± 0.36 kg/m3
same,viscosity,"293.15 K, x2 = 0.238",0.7586 ± 0.019 mPa·s
same,mass density,"293.15 K, x2 = 0.3499",1093.69 ± 0.34 kg/m3
same,viscosity,"293.15 K, x2 = 0.3499",0.7315 ± 0.019 mPa·s
same,mass density,"293.15 K, x2 = 0.4545",1089.67 ± 0.32 kg/m3
same,viscosity,"293.15 K, x2 = 0.4545",0.7132 ± 0.018 mPa·s
same,mass density,"293.15 K, x2 = 0.5559",1085.85 ± 0.3 kg/m3
same,viscosity,"293.15 K, x2 = 0.5559",0.698 ± 0.018 mPa·s
same,mass density,"293.15 K, x2 = 0.6518",1082.22 ± 0.29 kg/m3
same,viscosity,"293.15 K, x2 = 0.6518",0.6805 ± 0.018 mPa·s
same,mass density,"293.15 K, x2 = 0.7445",1078.84 ± 0.27 kg/m3
same,viscosity,"293.15 K, x2 = 0.7445",0.6567 ± 0.017 mPa·s
same,mass density,"293.15 K, x2 = 0.8332",1075.58 ± 0.26 kg/m3
same,viscosity,"293.15 K, x2 = 0.8332",0.6449 ± 0.017 mPa·s
same,mass density,"293.15 K, x2 = 0.9182",1072.42 ± 0.25 kg/m3
same,viscosity,"293.15 K, x2 = 0.9182",0.6244 ± 0.017 mPa·s
same,mass density,"298.15 K, x2 = 0",1101.33 ± 0.4 kg/m3
same,viscosity,"298.15 K, x2 = 0",0.7422 ± 0.019 mPa·s
same,mass density,"298.15 K, x2 = 0.1225",1096.65 ± 0.37 kg/m3
same,viscosity,"298.15 K, x2 = 0.1225",0.7318 ± 0.019 mPa·s
same,mass density,"298.15 K, x2 = 0.238",1092.16 ± 0.35 kg/m3
same,viscosity,"298.15 K, x2 = 0.238",0.7193 ± 0.019 mPa·s
same,mass density,"298.15 K, x2 = 0.3499",1087.88 ± 0.33 kg/m3
same,viscosity,"298.15 K, x2 = 0.3499",0.6956 ± 0.018 mPa·s
same,mass density,"298.15 K, x2 = 0.4545",1083.72 ± 0.31 kg/m3
same,viscosity,"298.15 K, x2 = 0.4545",0.6864 ± 0.018 mPa·s
same,mass density,"298.15 K, x2 = 0.5559",1079.81 ± 0.29 kg/m3
same,viscosity,"298.15 K, x2 = 0.5559",0.6627 ± 0.017 mPa·s
same,mass density,"298.15 K, x2 = 0.6518",1076.05 ± 0.28 kg/m3
same,viscosity,"298.15 K, x2 = 0.6518",0.6427 ± 0.017 mPa·s
same,mass density,"298.15 K, x2 = 0.7445",1072.55 ± 0.26 kg/m3
same,viscosity,"298.15 K, x2 = 0.7445",0.6226 ± 0.017 mPa·s
same,mass density,"298.15 K, x2 = 0.8332",1069.17 ± 0.25 kg/m3
same,viscosity,"298.15 K, x2 = 0.8332",0.6017 ± 0.016 mPa·s
same,mass density,"298.15 K, x2 = 0.9182",1065.93 ± 0.24 kg/m3
same,viscosity,"298.15 K, x2 = 0.9182",0.5856 ± 0.016 mPa·s
same,mass density,"303.15 K, x2 = 0",1095.96 ± 0.39 kg/m3
same,viscosity,"303.15 K, x2 = 0",0.7053 ± 0.018 mPa·s
same,mass density,"303.15 K, x2 = 0.1225",1091.12 ± 0.36 kg/m3
same,viscosity,"303.15 K, x2 = 0.1225",0.6862 ± 0.018 mPa·s
same,mass density,"303.15 K, x2 = 0.238",1086.51 ± 0.34 kg/m3
same,viscosity,"303.15 K, x2 = 0.238",0.6624 ± 0.017 mPa·s
same,mass density,"303.15 K, x2 = 0.3499",1082.09 ± 0.32 kg/m3
same,viscosity,"303.15 K, x2 = 0.3499",0.646 ± 0.017 mPa·s
same,mass density,"303.15 K, x2 = 0.4545",1077.8 ± 0.3 kg/m3
same,viscosity,"303.15 K, x2 = 0.4545",0.6408 ± 0.017 mPa·s
same,mass density,"303.15 K, x2 = 0.5559",1073.76 ± 0.28 kg/m3
same,viscosity,"303.15 K, x2 = 0.5559",0.6134 ± 0.016 mPa·s
same,mass density,"303.15 K, x2 = 0.6518",1069.91 ± 0.27 kg/m3
same,viscosity,"303.15 K, x2 = 0.6518",0.6014 ± 0.016 mPa·s
same,mass density,"303.15 K, x2 = 0.7445",1066.28 ± 0.26 kg/m3
same,viscosity,"303.15 K, x2 = 0.7445",0.5781 ± 0.016 mPa·s
same,mass density,"303.15 K, x2 = 0.8332",1062.78 ± 0.24 kg/m3
same,viscosity,"303.15 K, x2 = 0.8332",0.5632 ± 0.015 mPa·s
same,mass density,"303.15 K, x2 = 0.9182",1059.45 ± 0.23 kg/m3
same,viscosity,"303.15 K, x2 = 0.9182",0.5487 ± 0.015 mPa·s
same,mass density,"313.15 K, x2 = 0",1085.06 ± 0.38 kg/m3
same,viscosity,"313.15 K, x2 = 0",0.631 ± 0.017 mPa·s
same,mass density,"313.15 K, x2 = 0.1225",1079.97 ± 0.35 kg/m3
same,viscosity,"313.15 K, x2 = 0.1225",0.6145 ± 0.016 mPa·s
same,mass density,"313.15 K, x2 = 0.238",1075.08 ± 0.33 kg/m3
same,viscosity,"313.15 K, x2 = 0.238",0.5875 ± 0.016 mPa·s
same,mass density,"313.15 K, x2 = 0.3499",1070.36 ± 0.31 kg/m3
same,viscosity,"313.15 K, x2 = 0.3499",0.5709 ± 0.015 mPa·s
same,mass density,"313.15 K, x2 = 0.4545",1065.81 ± 0.29 kg/m3
same,viscosity,"313.15 K, x2 = 0.4545",0.563 ± 0.015 mPa·s
same,mass density,"313.15 K, x2 = 0.5559",1061.54 ± 0.27 kg/m3
same,viscosity,"313.15 K, x2 = 0.5559",0.5423 ± 0.015 mPa·s
same,mass density,"313.15 K, x2 = 0.6518",1057.46 ± 0.25 kg/m3
same,viscosity,"313.15 K, x2 = 0.6518",0.5322 ± 0.015 mPa·s
same,mass density,"313.15 K, x2 = 0.7445",1053.56 ± 0.24 kg/m3
same,viscosity,"313.15 K, x2 = 0.7445",0.5192 ± 0.014 mPa·s
same,mass density,"313.15 K, x2 = 0.8332",1049.86 ± 0.23 kg/m3
same,viscosity,"313.15 K, x2 = 0.8332",0.4992 ± 0.014 mPa·s
same,mass density,"313.15 K, x2 = 0.9182",1046.32 ± 0.22 kg/m3
same,viscosity,"313.15 K, x2 = 0.9182",0.4874 ± 0.014 mPa·s
same,mass density,"323.15 K, x2 = 0",1074.26 ± 0.36 kg/m3
same,viscosity,"323.15 K, x2 = 0",0.5677 ± 0.015 mPa·s
same,mass density,"323.15 K, x2 = 0.1225",1068.8 ± 0.34 kg/m3
same,viscosity,"323.15 K, x2 = 0.1225",0.5546 ± 0.015 mPa·s
same,mass density,"323.15 K, x2 = 0.238",1063.63 ± 0.31 kg/m3
same,viscosity,"323.15 K, x2 = 0.238",0.5273 ± 0.015 mPa·s
same,mass density,"323.15 K, x2 = 0.3499",1058.61 ± 0.29 kg/m3
same,viscosity,"323.15 K, x2 = 0.3499",0.5145 ± 0.014 mPa·s
same,mass density,"323.15 K, x2 = 0.4545",1053.8 ± 0.27 kg/m3
same,viscosity,"323.15 K, x2 = 0.4545",0.5039 ± 0.014 mPa·s
same,mass density,"323.15 K, x2 = 0.5559",1049.32 ± 0.26 kg/m3
same,viscosity,"323.15 K, x2 = 0.5559",0.4878 ± 0.014 mPa·s
same,mass density,"323.15 K, x2 = 0.6518",1044.96 ± 0.24 kg/m3
same,viscosity,"323.15 K, x2 = 0.6518",0.4729 ± 0.014 mPa·s
same,mass density,"323.15 K, x2 = 0.7445",1040.83 ± 0.23 kg/m3
same,viscosity,"323.15 K, x2 = 0.7445",0.4591 ± 0.013 mPa·s
same,mass density,"323.15 K, x2 = 0.8332",1036.88 ± 0.21 kg/m3
same,viscosity,"323.15 K, x2 = 0.8332",0.4468 ± 0.013 mPa·s
same,mass density,"323.15 K, x2 = 0.9182",1033.12 ± 0.2 kg/m3
same,viscosity,"323.15 K, x2 = 0.9182",0.4365 ± 0.013 mPa·s
same,mass density,"333.15 K, x2 = 0",1063.32 ± 0.35 kg/m3
same,viscosity,"333.15 K, x2 = 0",0.5069 ± 0.014 mPa·s
same,mass density,"333.15 K, x2 = 0.1225",1057.53 ± 0.33 kg/m3
same,viscosity,"333.15 K, x2 = 0.1225",0.4954 ± 0.014 mPa·s
same,mass density,"333.15 K, x2 = 0.238",1052.07 ± 0.3 kg/m3
same,viscosity,"333.15 K, x2 = 0.238",0.4791 ± 0.014 mPa·s
same,mass density,"333.15 K, x2 = 0.3499",1046.76 ± 0.28 kg/m3
same,viscosity,"333.15 K, x2 = 0.3499",0.4619 ± 0.013 mPa·s
same,mass density,"333.15 K, x2 = 0.4545",1041.66 ± 0.26 kg/m3
same,viscosity,"333.15 K, x2 = 0.4545",0.452 ± 0.013 mPa·s
same,mass density,"333.15 K, x2 = 0.5559",1036.93 ± 0.24 kg/m3
same,viscosity,"333.15 K, x2 = 0.5559",0.4401 ± 0.013 mPa·s
same,mass density,"333.15 K, x2 = 0.6518",1032.33 ± 0.23 kg/m3
same,viscosity,"333.15 K, x2 = 0.6518",0.4277 ± 0.013 mPa·s
same,mass density,"333.15 K, x2 = 0.7445",1027.92 ± 0.21 kg/m3
same,viscosity,"333.15 K, x2 = 0.7445",0.415 ± 0.013 mPa·s
same,mass density,"333.15 K, x2 = 0.8332",1023.72 ± 0.2 kg/m3
same,viscosity,"333.15 K, x2 = 0.8332",0.4046 ± 0.012 mPa·s
same,mass density,"333.15 K, x2 = 0.9182",1019.74 ± 0.19 kg/m3
same,viscosity,"333.15 K, x2 = 0.9182",0.3949 ± 0.012 mPa·s
same,mass density,"343.15 K, x2 = 0",1052.44 ± 0.34 kg/m3
same,viscosity,"343.15 K, x2 = 0",0.4658 ± 0.013 mPa·s
same,mass density,"343.15 K, x2 = 0.1225",1046.33 ± 0.31 kg/m3
same,viscosity,"343.15 K, x2 = 0.1225",0.455 ± 0.013 mPa·s
same,mass density,"343.15 K, x2 = 0.238",1040.54 ± 0.29 kg/m3
same,viscosity,"343.15 K, x2 = 0.238",0.4326 ± 0.013 mPa·s
same,mass density,"343.15 K, x2 = 0.3499",1034.93 ± 0.27 kg/m3
same,viscosity,"343.15 K, x2 = 0.3499",0.4242 ± 0.013 mPa·s
same,mass density,"343.15 K, x2 = 0.4545",1029.51 ± 0.25 kg/m3
same,viscosity,"343.15 K, x2 = 0.4545",0.4142 ± 0.013 mPa·s
same,mass density,"343.15 K, x2 = 0.5559",1024.52 ± 0.23 kg/m3
same,viscosity,"343.15 K, x2 = 0.5559",0.3978 ± 0.012 mPa·s
same,mass density,"343.15 K, x2 = 0.6518",1019.67 ± 0.21 kg/m3
same,viscosity,"343.15 K, x2 = 0.6518",0.3879 ± 0.012 mPa·s
same,mass density,"343.15 K, x2 = 0.7445",1014.99 ± 0.2 kg/m3
same,viscosity,"343.15 K, x2 = 0.7445",0.377 ± 0.012 mPa·s
same,mass density,"343.15 K, x2 = 0.8332",1010.53 ± 0.19 kg/m3
same,viscosity,"343.15 K, x2 = 0.8332",0.3678 ± 0.012 mPa·s
same,mass density,"343.15 K, x2 = 0.9182",1006.31 ± 0.17 kg/m3
same,viscosity,"343.15 K, x2 = 0.9182",0.3609 ± 0.012 mPa·s
